Data published in patent US20260240740A1, “MULTI-PHOTOPROTECTIVE COMPOUNDS AND USES THEREOF” (SKINOSIVE, priority 2022, published 2026).
Several values for one entry are separate records, joined by “and”; a condition that tells them apart may be missing. Equal values may be shown once.

Assays:
[1] = Solubility in sunscreen solvents; type: physicochemical; conditions: 50° C.
Protocol: Compound #2 (OOD) and a sunscreen solvent were weighed in a Becher. The Becher was placed on a magnetic stir plate, heated up to 50° C., and the solution was vigorously mixed with a bar magnet.
Compound #4 (OHD) and a sunscreen solvent were weighed in a Becher. The Becher was placed on a magnetic stir plate, heated up to 50° C., and the solution was vigorously mixed with a bar magnet.
Compound #5 (BOO) and a sunscreen solvent were weighed in a Becher. The Becher was placed on a magnetic stir plate, heated up to 50° C., and the solution was vigorously mixed with a bar magnet.
Compound #6 (BOO-OM) and a sunscreen solvent were weighed in a Becher. The Becher was placed on a magnetic stir plate, heated up to 50° C., and the solution was vigorously mixed with a bar magnet.

[2] = tested on: pig skin; assay: UV protection ex vivo on pig skin by autofluorescence quenching
Protocol: UV Protection Performance of Compound #2 (OOD) UVB and UVA protections have been assessed ex vivo on pig skin by measuring the autofluorescence quenching. OOD (Compound #2), the mix of DHHB+OCR were solubilized at the same molar concentration in Dottisol (isosorbide dimethyl ether), covered 6.25 cm2 skin square and incubated 20 min or 2 hours at room temperatures, and then 7 mm skin punches were cut and placed in a black 96-well plate. UVB and UVA protections were measured after respectively an excitation at 300 nm and 355 nm and a fluorescence emission was read at 460 nm. DMSO was added on the pig skin before the reading of the residual fluorescence.
UVB and UVA protections have been assessed ex vivo on pig skin by measuring the autofluorescence quenching. BOO (Compound #5) and the mix of BEMT+OCR were solubilized at the same molar concentration in Dottisol (isosorbide dimethyl ether), covered 6.25 cm^2 skin square and incubated 4 hours at 34° C., washed or not with 10 mL Ethanol for 5 min, and then 7 mm diameter skin punches were cut and placed in a black 96-well plate. UVB and UVA protections were measured after respectively an excitation at 300 nm and 355 nm and a fluorescence emission was read at 460 nm.
UVB protection has been assessed ex vivo on pig skin by measuring the autofluorescence quenching. BOO (Compound #5), BOO-OM (Compound #6) and the mix of BEMT+OCR were solubilized at the same molar concentration in DMDA (dimethyl capramide), covered 6.25 cm2 skin square and incubated 2 hours at 34° C., washed or not with 10 mL Ethanol for 5 min, and then 7 mm diameter skin punches were cut and placed in a black 96-well plate. UVB protection was measured after respectively an excitation at 300 nm and a fluorescence emission was read at 460 nm.

[3] = Photostability after UV irradiation, HPLC; type: physicochemical
Protocol: (§1) Compound #2 (OOD), Univul A plus (DHHB), Octocrylene (OCR), and Univul A plus (DHHB)+Octocrylene (OCR) were dissolved in Ethanol at 1 mM and were irradiated at 2000 and 4000 J/dm2 for 1 h and 2 h in a 24-well plate, respectively, in 2 replicates (1 replicate for HPLC and 1 replicate for absorbance spectra).
as §1, with “#4 (OHD),” for “#2 (OOD),”
(§2) Compound #5 (BOO), Tinosorb S (BEMT), and Octocrylene (OCR) were dissolved in Dubdis at 2 mM and were irradiated at 4000 J/dm2 for 2 h in a 24-well plate, respectively, in 2 replicates (1 replicate for HPLC and 1 replicate for absorbance spectra).

[4] = UV absorbance profile: λmax in solvents, FLUOstar plate reader; type: physicochemical; conditions: for λmax: 125 μM; for λmax double peak, first peak / λmax double peak, second peak: 50 μM
Protocol: Compound #2 (OOD), Univul A plus (DHHB)+Octocrylene (OCR) were dissolved in a solvent at the same concentration (125 μM).
Compound #4 (OHD), Univul A plus (DHHB)+Octocrylene (OCR) were dissolved in a solvent at the same concentration (125 μM).
Compound #5 (BOO) and BEMT (6,6′-(6-(4-methoxyphenyl)-1,3,5-triazine-2,4-diyl)bis(3-((2-ethylhexyl)oxy)phenol)=Tinosorb S)+Octocrylene (OCR) were dissolved in a solvent at the same concentration (50 μM).
UV Absorbance Profil of Compound #6 (BOO-OM) Compound #6 (BOO-OM) and BEMT (6,6′-(6-(4-methoxyphenyl)-1,3,5-triazine-2,4-diyl)bis(3-((2-ethylhexyl)oxy)phenol)=Tinosorb S)+Octocrylene (OCR) were dissolved in a solvent at the same concentration (50 μM).

[5] = Photostability after UV irradiation, absorbance spectra; type: physicochemical; conditions: for Absorbance peak, Without UV irradiation / Absorbance peak, Irradiation 2000 J/dm2 / Absorbance peak, Irradiation 4000 J/dm2 / λmax after irradiation / Effect of irradiation on UV absorbance profile: Ethanol; for Absorbance peak, Without UV irradiation / Absorbance peak, Irradiation 2000 J/dm2 / Absorbance peak, Irradiation 4000 J/dm2: 1 mM; for Absorbance peak, Irradiation 2000 J/dm2: 1 h; for Absorbance peak, Irradiation 4000 J/dm2 / Absorbance peak, Irradiation 4000 J/dm2, first or only peak / Absorbance peak, Irradiation 4000 J/dm2, second peak: 2 h; for λmax after irradiation / Effect of irradiation on UV absorbance profile: 2000 or 4000 J/dm2 for 1 or 2 hours; for Absorbance peak, Without UV irradiation, first or only peak / Absorbance peak, Without UV irradiation, second peak / Absorbance peak, Irradiation 4000 J/dm2, first or only peak / Absorbance peak, Irradiation 4000 J/dm2, second peak: 2 mM
Protocol: as §1
as §1, with “#4 (OHD),” for “#2 (OOD),”
as §2

[6] = tested on: thiolated polylysine matrix; assay: Bio adhesion on thiolated polylysine matrix (UV absorbance at 310 nm after ethanol washes); conditions: overnight incubation in ethanol/PBS (90%/10%), washed 10 times with ethanol
Protocol: Polylysine and Polylysine enriched in SH by thiolation of primary amines using Traut's reagent were used for coating 96-well microplates. UV filters (BOO and BOO-OM) were incubated overnight under orbital agitation on the different matrices (n=3 for each condition) (uncoated wells were used as negative controls), in an ethanol/PBS (90%/10%) solution. After incubation, each microplate well was thoroughly washed 10 times with ethanol, before measuring UV absorbance. Whole UV/Visible absorbance spectrum from 220 to 1000 nm were measured in the center of each microplate well. In addition, specific UV absorbance at 310 nm was measured by matrix scan over the whole the well as a 10×10 matrix.

[7] = Cetiol HE (PEG-7 Glyceryl Cocoate)
[8] = pig skin autofluorescence after 2 h of incubation, Dottisol, Mean +/− SD, N = 3
[9] = pig skin autofluorescence after 4 h of incubation, Dottisol, 10 mL Ethanol 5 min, Mean +/− SD, N = 3
[10] = pig skin autofluorescence after 4 h of incubation, Dottisol, Mean +/− SD, N = 3

| soluble at ratio ([1]; Cetiol B (Dibutyl Adipate)) | degradation observed by HPLC after irradiation ([3]; Ethanol) | purity by HPLC after irradiation ([3]; Ethanol) [%] | purity by HPLC, non-irradiated ([3]; Ethanol) [%] | λmax ([4]; DMSO) [nm] | λmax ([4]; Ethanol) [nm] | Absorbance peak, Without UV irradiation [5] [nm] | Absorbance peak, Irradiation 2000 J/dm2 [5] [nm] | Absorbance peak, Irradiation 4000 J/dm2 [5] [nm] | λmax after irradiation [5] [nm] | Effect of irradiation on UV absorbance profile ([5]; UVB and UVA range) | degradation observed by HPLC after irradiation ([3]; Dubdis) | Absorbance peak, Without UV irradiation, first or only peak ([5]; Dubdis) [nm] | Absorbance peak, Without UV irradiation, second peak ([5]; Dubdis) [nm] | Absorbance peak, Irradiation 4000 J/dm2, first or only peak ([5]; Dubdis) [nm] | Absorbance peak, Irradiation 4000 J/dm2, second peak ([5]; Dubdis) [nm] | SMILES | also measured |
| --- | --- | --- | --- | --- | --- | --- | --- | --- | --- | --- | --- | --- | --- | --- | --- | --- | --- |
| – | – | – | – | – | – | – | – | – | – | – | No degradation | 310 | 351 | 310 | 351 | CCCCC(CC)COc1ccc(-c2nc(-c3ccc(OC)cc3)nc(-c3ccc(OCC(CC)CCCC)cc3O)n2)c(O)c1 (stereo not shown) [BEMT, 6,6′-(6-(4-methoxyphenyl)-1,3,5-triazine-2,4-diyl)bis(3-((2-ethylhexyl)oxy)phenol), reference compound] | – |
| – | – | – | – | – | – | – | – | – | – | – | No degradation | 301 | 323 | 301 | 324 | CCCCC(CC)COc1ccc(-c2nc(-c3ccc(OC)cc3)nc(-c3ccc(OCC(CC)CCCC)cc3OCCCCCCCCNC(=O)C(C#N)=C(c3ccccc3)c3ccccc3)n2)c(O)c1 (stereo not shown) [Compound #5, 2-cyano-N-(8-(5-((2-ethylhexyl)oxy)-2-(4-(4-((2-ethylhexyl)oxy)-2-hydroxyphenyl)-6-(4-methoxyphenyl)-1,3,5-triazin-2-yl)phenoxy)octyl)-3,3-diphenylacrylamide] | UVA and UVB protections of the pig skin compared to the mix OCR+BEMT ([2]; 4 h incubation, Dottisol): similar; UVB Fluorescence (Ex300/Em460) No Wash ([2]; pig skin autofluorescence after 2 h of incubation, DMDA (dimethyl capramide), Mean +/− SD, N = 3): 42968 +/− 3131; UVB Fluorescence (Ex300/Em460) EtOH Wash ([2]; pig skin autofluorescence after 2 h of incubation, DMDA, 10 mL Ethanol 5 min, Mean +/− SD, N = 3): 152417 +/− 17275; UVA Fluorescence (Ex355/Em460) EtOH Wash [2, 9]: 217235 +/− 4204; UVB Fluorescence (Ex300/Em460) EtOH Wash [2, 9]: 205205 +/− 3116; UVA Fluorescence (Ex355/Em460) No Wash [2, 10]: 49672 +/− 9882; UVB Fluorescence (Ex300/Em460) No Wash [2, 10]: 49009 +/− 9100; UVB protection after ethanol wash compared to the initial protection before washing ([2]; pig skin, 2 h incubation, DMDA): decreased three times; purity by HPLC after irradiation ([3]; Dubdis): 98.13%; purity by HPLC, non-irradiated ([3]; Dubdis): 98.88%; λmax double peak, first peak ([4]; Dottisol): 301 nm; λmax double peak, second peak ([4]; Dottisol): 324 nm; λmax double peak, first peak ([4]; Dubdis): 301 nm; λmax double peak, second peak ([4]; Dubdis): 323 nm; λmax absorbance shift in UVB versus the mix of BEMT-OCR ([4]; same molar concentration, Dubdis, same shift in Dottisol): 10 nm; Absorbance peak, Irradiation 4000 J/dm2, second peak ([5]; Dubdis, listed as BOO): 323 nm; Effect of irradiation on UV absorbance profiles and λmax ([5]; Dubdis, UVB and UVA range, 4000 J/dm2 for 2 hours): did not modify; bio adhesion, UV absorbance at 310 nm [6]: did not show a bio adhesion |

Further lines, the compound ahead of its results:

| SMILES | soluble at ratio ([1]; Cetiol B (Dibutyl Adipate)) | degradation observed by HPLC after irradiation ([3]; Ethanol) | purity by HPLC after irradiation ([3]; Ethanol) [%] | purity by HPLC, non-irradiated ([3]; Ethanol) [%] | λmax ([4]; DMSO) [nm] | λmax ([4]; Ethanol) [nm] | Absorbance peak, Without UV irradiation [5] [nm] | Absorbance peak, Irradiation 2000 J/dm2 [5] [nm] | Absorbance peak, Irradiation 4000 J/dm2 [5] [nm] | λmax after irradiation [5] [nm] | Effect of irradiation on UV absorbance profile ([5]; UVB and UVA range) | degradation observed by HPLC after irradiation ([3]; Dubdis) | Absorbance peak, Without UV irradiation, first or only peak ([5]; Dubdis) [nm] | Absorbance peak, Without UV irradiation, second peak ([5]; Dubdis) [nm] | Absorbance peak, Irradiation 4000 J/dm2, first or only peak ([5]; Dubdis) [nm] | Absorbance peak, Irradiation 4000 J/dm2, second peak ([5]; Dubdis) [nm] | also measured |
| --- | --- | --- | --- | --- | --- | --- | --- | --- | --- | --- | --- | --- | --- | --- | --- | --- | --- |
| CCN(CC)c1ccc(C(=O)c2ccccc2C(=O)NCCCCCCCCOC(=O)C(C#N)=C(c2ccccc2)c2ccccc2)c(O)c1 [Compound #2, 8-[[2-[4-(diethylamino)-2-hydroxy-benzoyl]benzoyl]amino]octyl 2-cyano-3,3-diphenyl-prop-2-enoate] | 1/1 | No degradation | 98.80 | 99.17 | 356 | 356 | 357 | 357 | 357 | 357 | did not modify | – | – | – | – | – | soluble at ratio [1, 7]: ⅕; soluble at ratio ([1]; Dubdis (Diisopropyl sebacate)): 1/1; UVA and UVB protections of the pig skin compared to the mix OCR+DHHB ([2]; 2 h incubation, Dottisol): similar; UVA Fluorescence (Ex355/Em460) [2, 8]: 2881 +/− 617; UVB Fluorescence (Ex300/Em460) [2, 8]: 15248 +/− 3227; λmax ([4]; Cetiol B (Dibutyl Adipate)): 355 nm; λmax [4, 7]: 355 nm; λmax ([4]; Dubdis (diisopropyl sebacate), listed as OOD): 355 nm and 356 nm |
| CCCCCCOC(=O)c1ccccc1C(=O)c1ccc(N(CC)CC)cc1O [DHHB, diethylamino hydroxybenzoyl hexyl benzoate, reference compound] | – | No degradation | – | – | – | – | 357 | 357 | 357 | – | – | – | – | – | – | – | – |
| CCN(CC)c1ccc(C(=O)c2ccccc2C(=O)NCCCCCCOC(=O)C(C#N)=C(c2ccccc2)c2ccccc2)c(O)c1 [Compound #4, 6-[[2-[4-(diethylamino)-2-hydroxy-benzoyl]benzoyl]amino]hexyl 2-cyano-3,3-diphenyl-prop-2-enoate] | ⅓ | No degradation | 97.84 | 98.13 | 356 | 356 | 358 | 357 | 357 | 357 | did not modify | – | – | – | – | – | soluble at ratio ([1]; Dimethyl capramide (Spectrasolv DMDA)): 1/1 |
| CCCCC(CC)COC(=O)C(C#N)=C(c1ccccc1)c1ccccc1 (stereo not shown) [OCR, 2-ethylhexyl 2 cyano-3,3-diphenylacrylate, reference compound] | – | No degradation | – | – | – | – | 304 | 304 | 304 | – | – | No degradation | 305 | – | 309 | – | – |
